Source: the CheMixHub drug solubility set

Test: xn = mol fraction of the nth substance listed, in the solute-free solvent

Clc1ncnc2[nH]ccc12 + C1CCOC1 + CC(C)O
solubility (g/100 g solution)
Conditions	278.15 K	283.15 K	288.15 K	293.15 K	298.15 K	303.15 K	308.15 K	313.15 K	318.15 K	323.15 K
x2 = 0.1584	3.68	4.2	4.8	5.46	6.15	6.89	7.74	8.58	9.6	10.6
x2 = 0.32	5.12	5.79	6.49	7.25	8.17	9.04	9.96	10.9	12	13.2
x2 = 0.4848	6.63	7.38	8.22	9.03	9.99	10.9	12	13.1	14.2	15.3
x2 = 0.5685	7.34	8.12	8.96	9.81	10.8	11.9	12.8	14	15.1	16.3
x2 = 0.6531	7.99	8.83	9.69	10.6	11.6	12.6	13.7	14.7	15.8	17
x2 = 0.8247	8.95	9.82	10.7	11.6	12.6	13.5	14.6	15.7	16.7	17.9

CS(=O)(=O)c1ccc(C(O)C(CF)NC(=O)C(Cl)Cl)cc1 (stereo not given) + CC(C)O + O
solubility (g/100 g solution)
Conditions	278.15 K	283.15 K	288.15 K	293.15 K	298.15 K	303.15 K	308.15 K	313.15 K	318.15 K
x2 = 0.03225	0.082	0.109	0.146	0.189	0.246	0.32	0.403	0.515	0.641
x2 = 0.06974	0.117	0.159	0.216	0.278	0.362	0.488	0.613	0.798	1
x2 = 0.1139	0.16	0.215	0.286	0.379	0.504	0.64	0.828	1.06	1.35
x2 = 0.1666	0.199	0.266	0.353	0.472	0.608	0.787	1.01	1.29	1.64
x2 = 0.2307	0.237	0.317	0.422	0.56	0.717	0.931	1.19	1.5	1.88
x2 = 0.3103	0.276	0.367	0.481	0.629	0.81	1.05	1.34	1.67	2.1
x2 = 0.4117	0.296	0.398	0.516	0.669	0.873	1.14	1.42	1.78	2.24
x2 = 0.5454	0.308	0.411	0.536	0.702	0.9	1.16	1.47	1.89	2.32
x2 = 0.7297	0.309	0.407	0.537	0.697	0.911	1.14	1.47	1.84	2.29

CC1(C)SC2C(NC(=O)C(NC(=O)N3CCNC3=O)c3ccccc3)C(=O)N2C1C(=O)O (stereo not given) + CCO + CC(C)O
solubility (g/100 g solution)
Conditions	278.15 K	283.15 K	288.15 K	293.15 K	298.15 K	303.15 K	308.15 K	313.15 K	318.15 K	323.15 K
x2 = 0.101	0.0833	0.0951	0.122	0.14	0.179	0.215	0.264	0.329	0.405	0.525
x2 = 0.2	0.0893	0.101	0.129	0.153	0.191	0.238	0.294	0.368	0.449	0.59
x2 = 0.301	0.119	0.135	0.164	0.208	0.248	0.287	0.369	0.426	0.528	0.687
x2 = 0.401	0.13	0.155	0.19	0.238	0.281	0.339	0.415	0.511	0.63	0.773
x2 = 0.5	0.154	0.182	0.223	0.279	0.345	0.399	0.484	0.636	0.78	0.991
x2 = 0.602	0.197	0.227	0.275	0.345	0.43	0.537	0.646	0.789	0.974	1.25
x2 = 0.703	0.268	0.302	0.368	0.464	0.539	0.677	0.857	1.05	1.29	1.61
x2 = 0.8	0.37	0.45	0.53	0.623	0.718	0.882	1.15	1.38	1.67	2.05
x2 = 0.9	0.54	0.618	0.748	0.927	1.11	1.35	1.69	2.01	2.39	2.92

O=C1NS(=O)(=O)c2ccccc21 + CO + CC#N
solubility (g/100 g solution)
Conditions	x2 = 0.1002	x2 = 0.2003	x2 = 0.2998	x2 = 0.4002	x2 = 0.4998	x2 = 0.6003	x2 = 0.7001	x2 = 0.7995	x2 = 0.9003
293.15 K	5.52	7.2	8.84	9.66	10	10.1	9.63	8.67	7.25
298.15 K	5.88	7.96	9.73	10.6	11	11.1	10.6	9.56	8.07
303.15 K	6.65	9.04	10.9	11.9	12.5	12.5	12.1	11	9.1
308.15 K	7.35	9.93	12.1	13.2	13.8	14	13.6	12.1	10.1
313.15 K	8.31	11.2	13.3	14.7	15.4	15.6	15.1	13.9	11.7
318.15 K	9.32	12.7	15.2	16.8	17.6	17.7	17.2	15.8	13.3
323.15 K	10.6	14.1	16.7	18.4	19.3	19.6	19.1	17.6	15.1

COC(=O)C1=C(C)NC(C)=C(C(=O)OCC(C)C)C1c1ccccc1[N+](=O)[O-] (stereo not given) + CCOC(C)=O + CCO
solubility (g/100 g solution)
Conditions	278.15 K	283.15 K	288.15 K	293.15 K	298.15 K	303.15 K	308.15 K	313.15 K	318.15 K
x2 = 0.05491	3.09	3.87	4.65	5.7	6.64	8.03	9.37	11.1	12.9
x2 = 0.1156	3.98	4.79	5.78	6.75	8.13	9.47	11	12.8	14.5
x2 = 0.1831	4.91	5.89	6.97	8.15	9.36	10.8	12.3	14	15.7
x2 = 0.2585	5.53	6.46	7.49	8.75	10	11.5	13	14.7	16.6
x2 = 0.3434	5.99	6.94	8.09	9.33	10.6	12	13.7	15.3	17.2
x2 = 0.4396	6.34	7.36	8.52	9.66	11.2	12.6	14.2	15.9	17.7
x2 = 0.5496	6.6	7.63	8.77	10.1	11.4	12.8	14.4	16.1	18
x2 = 0.6765	6.76	7.78	8.91	10.2	11.5	13.1	14.7	16.3	18.2
x2 = 0.8247	6.8	7.86	9.01	10.2	11.6	13.1	14.6	16.3	18.2
